Measurements: patent US20140213559A1, “COMPOSITIONS AND TREATMENTS FOR DYSTROPHIES” (MD PHARMA AB, priority 2011, published 2014)

Experiments:
Assay type in all cases: in vivo, mouse
dy3K/dy3K mice [1] = experiment: Body weight measurement; settings: 3-MA treated vs non-injected dy3K/dy3K mice, 4-week-old
Procedure: (§1) Systemic administration was performed by intraperitoneal injection of 3-MA (15 mg/kg) into dy3K/dy3K mice and control littermates at the age of 2.5 weeks and 3.5 weeks. Mice were sacrificed 14 days after injection and quadriceps and tibialis anterior muscles were processed for morphometric analysis, immunofluorescence experiments, qRT-PCR or Western blot analysis. Prior to the euthanasia, an exploratory locomotion test was performed.

Akt = Akt phosphorylation in quadriceps muscle, Western blot; settings: dy3K/dy3K quadriceps
Procedure: as §1
Isolated quadriceps muscles were obtained from 6 wild-type, 6 dy3K/dy3K mice (3.5 weeks of age) and 6 dy3K/dy3K mice 48 h or 14 days after 3-MA injection. Each sample was immediately frozen in liquid nitrogen and reduced to powder using a mortar. Protein extracts were obtained as previously described (16). A total of […] of denaturated protein was loaded on 10-20% acrylamide SDS-gels (Clearpage, CBS Scientific) and blotted onto nitrocellulose membranes (Hybond-C, Amersham) during 1.5 hour (Biorad). The membranes were blocked for one hour at RT in PBS, 0.01% Tween-20, 5% milk and incubated overnight at 4° C. with rabbit polyclonal antibodies directed against pAkt (Ser 473, 1/2000, #4060 or Thr 308, 1/1000, #2965, Cell Signaling Technology), Akt (1/1000, #4685, Cell Signaling Technology), Vps34 (1/200, V9764, Sigma) or LC3B (1/250, #2775, Cell Signaling Technology). […]

dy3K/dy3K mice [2] = experiment: Histology, immunofluorescence and morphometric analysis of muscle after systemic 3-MA injection
Procedure: Systemic administration was performed by intraperitoneal injection of 3-MA (15 mg/kg) into dy3K/dy3K mice and control littermates at the age of 2.5 weeks and 3.5 weeks. […] Prior to the euthanasia, an exploratory locomotion test was performed.
Quadriceps and tibialis anterior muscles from wild-type, dy3K/dy3K and injected mice (n=6 for each group) were rapidly dissected after euthanasia and frozen in OCT (Tissue Tek) in liquid nitrogen. Serial sections of […] were either stained with hematoxylin and eosin or processed for immunofluorescence experiments following standard procedures (20) with rabbit polyclonal antibodies directed against LC3B (1/100, #3868, Cell Signaling Technology), laminin γ1 chain (1/1000, #1083), laminin α4 chain (1/400, #1100) and […] (1/400, #1117) generously provided by Dr. T. Sasaki, rat monoclonal antibodies against laminin γ1 chain (1/200, MAB 1914, Chemicon) and tenascin-C (undiluted, MTn15), goat polyclonal antibody against collagen III (1/100, #1330, SouthernBiotech) and mouse monoclonal antibodies against caspase-3 (1/100, CPP32, BD Transduction Laboratory), embryonic myosin heavy chain (F1.652, Developmental Studies Hybridoma Bank) and MyoD (1/100, clone 5.8A Dako). For apoptotic myofiber detection, a TUNEL detection kit was used following instructions of the manufacturer (GenScript). Sections were analyzed using a Zeiss Axioplan fluorescence microscope. Images were captured using an ORCA 1394 ER digital camera with the Openlab 3 software.
Measurements were performed on whole quadriceps or tibialis anterior muscle sections from untreated wild-type and dy3K/dy3K, wild-type and dy3K/dy3K 3-MA injected animals (n=6 for each group). Tenascin-C and collagen III positive areas, eMHC positive fibers, caspase-3 positive fibers, TUNEL-positive myonuclei and fiber diameters were measured using the imageJ software. Minimal Feret's diameter was measured (41) for at least 1500 fibers for each mouse. The same number of fibers was used for quantification of fibers with centrally located nuclei. Wet quadriceps muscle weights were determined from 7 uninjected wild-type or dy3K/dy3K and 3-MA treated wild-type (n=4) and dy3K/dy3K (n=6) animals and correlated to body weight.

wild-type mice = experiment: Hind leg paralysis observation in injected wild-type mice; settings: 3-MA injected wild-type mice
Procedure: as §1

[3] = test system: autophagy-related genes (LC3B, Cathepsin L, Lamp2a, Gabarapl1, Atg4b, Vps34, Beclin); experiment: Expression of autophagy-related genes in quadriceps muscle after systemic 3-MA injection (qRT-PCR, Western blot, immunofluorescence); settings: dy3K/dy3K mice, 3-MA 15 mg/kg intraperitoneal at 2.5 and 3.5 weeks, 14 days post-injection
Procedure: as §1
Total RNA was extracted from 10 mg quadriceps muscle of 6 dy3K/dy3K mice (3.5-week-old) and 6 WT littermates and 5 WT and 5 dy3K/dy3K mice treated with 3-MA using RNeasy mini kit (Qiagen) including an initial step of proteinase K digestion (Fermentas, 240 ng/μl). […] Quantitative PCRs were performed in triplicate with the Maxima SYBR Green qPCR Master Mix (Fermentas). Expression of target and reference genes was monitored using a real-time qRT-PCR method (Light Cycler, Roche) with the previously described primers for the autophagic genes LC3B, Cathepsin L, Lamp2a, Gabarapl1, Atg4b, Vps34 and Beclin (8). The amplification efficiency for each primer pair was evaluated by amplification of serially diluted template cDNAs ([…]). Efficiency corrected RNA levels (in arbitrary units) were calculated by using the formula E^−Ct. Expression levels were then calculated relative to the endogenous control gene GAPDH and relative to wild-type quadriceps. […]

dy3K/dy3K mice [4] = experiment: Peripheral neuropathy / hind leg paralysis observation; settings: 3-MA treated dy3K/dy3K mice
Procedure: as §1

dy3K/dy3K mice [5] = experiment: Survival curves; settings: two systemic injections of 3-MA, 22 days for non-treated
Procedure: as §1
Death was monitored in 3-MA injected dy3K/dy3K mice (n=9). A survival curve was constructed using the GraphPad Prism 4 software.

dy3K/dy3K mice [6] = experiment: Exploratory locomotion, open field test; settings: 3-MA injected dy3K/dy3K mice, 14 days after injection, 5 min
Procedure: as §1
Exploratory locomotion was examined in an open field test. In each experiment, the mouse 14 days after 3-MA injection (n=11 for dy3K/dy3K and wild-type, respectively) was placed into a new cage and allowed to explore the cage for 5 min. The time that the mouse spent moving around was measured manually.

[7] = 3-MA injected dy3K/dy3K mice, quadriceps
[8] = 3-MA injected vs non-injected dy3K/dy3K mice, quadriceps, 14 days post-injection
[9] = 3-MA treated dy3K/dy3K mice, quadriceps, 14 days

For `Cn1cnc(N)c2ncnc1-2` [3-MA, 3-methyladenine], the body weight (dy3K/dy3K mice [1]) was “weighed significantly more”, the “Akt phosphorylation on threonine 308 and serine 473” value (Akt; 48 h after injection) was “restored to wild-type levels” and the “Akt phosphorylation on threonine 308 and serine 473” value (Akt; 14 days after injection) was “restored to wild-type levels”. For the same molecule, the “amount of MyoD1 positive nuclei” value (dy3K/dy3K mice [2]; [7]) was “increased”, the “number of cells with centrally located nuclei” value (dy3K/dy3K mice [2]; [7]) was “slightly but significantly elevated” and the “proportion of fibers expressing eMHC” value (dy3K/dy3K mice [2]; [7]) was “significantly increased”. For the same molecule, the “ratio of quadriceps muscle wet weight per body weight” value (dy3K/dy3K mice [2]; 3-MA injected vs age-matched non-injected dy3K/dy3K mice) was “normalized”, the “Collagen III expression (fibrosis)” value (dy3K/dy3K mice [2]; [8]) was “reduced” and the “tenascin-C expression (fibrosis)” value (dy3K/dy3K mice [2]; [8]) was “reduced”. For the same molecule, the “proportion of TUNEL-positive myonuclei” value (dy3K/dy3K mice [2]; 3-MA treated dy3K/dy3K animals, quadriceps) was “significantly reduced”, the “expression of laminin 132 chain” value (dy3K/dy3K mice [2]; [9]) was “near normal” and the “expression of laminin α4 chain” value (dy3K/dy3K mice [2]; [9]) was “near normal”. The muscle morphology (dy3K/dy3K mice [2]; dy3K/dy3K mice, 3-MA 15 mg/kg intraperitoneal at 2.5 and 3.5 weeks, 14 days post-injection) was “considerably improved muscle morphology”, the caspase-3 positive fibers (dy3K/dy3K mice [2]; dy3K/dy3K mice, forty-eight hours after 3-MA injection) was “same proportion as in non-injected dy3K/dy3K mice” and the “proportion of caspase 3 positive fibers” value (dy3K/dy3K mice [2]; dy3K/dy3K quadriceps, 14 days after injection) was “significantly decreased”. The average fibre diameter (dy3K/dy3K mice [2]; quadriceps, dy3K/dy3K mice upon 3-MA injection) was “increased”, the “fibre size distribution in quadriceps muscle” value (dy3K/dy3K mice [2]; wild-type and dy3K/dy3K injected animals) was “significantly shifted towards larger fibres” and the hind leg paralysis (wild-type mice) was “not in 3-MA injected wild-type mice”. For the same molecule, the “expression of the autophagy-related genes” value [3] was “restored the expression of the autophagy-related genes to the basal level”, the “pathology of the peripheral nerve” value (dy3K/dy3K mice [4]) was “did not appreciably improve” and the hind leg paralysis (dy3K/dy3K mice [4]; similar in non-treated dy3K/dy3K mice) was “transient hind leg paralysis often occurred in one leg”. The median survival (dy3K/dy3K mice [5]) was 37 days and the “activity in an open field test (exploratory locomotion)” value (dy3K/dy3K mice [6]) was “same level of activity as wild-type animals”.
